Laboratory results taken from the supplement of paper PMC13380429.

Legend:
Conditions in all cases: 72 h
Caco-2 [1] = experiment: cell viability relative to DMSO; higher = less toxic
Calu-3 [2] = experiment: as above
HepG2 [3] = experiment: as above
U2OS [4] = experiment: as above
Vero E6 [5] = experiment: as above
Caco-2 [6] = experiment: relative viability EC50 (midpoint between 100% and the lowest measured viability); higher = less toxic
Calu-3 [7] = experiment: as above
HepG2 [8] = experiment: as above
U2OS [9] = experiment: as above
Vero E6 [10] = experiment: as above
Caco-2 [11] = experiment: drug sensitivity score (DSS) for viability; higher = more toxic; extreme values may be limits of the assay
Calu-3 [12] = experiment: as above
HepG2 [13] = experiment: as above
U2OS [14] = experiment: as above
Vero E6 [15] = experiment: as above

Row | SMILES | cell viability (Caco-2 [1]; 1 nM) | cell viability (Caco-2 [1]; 10 nM) | cell viability (Caco-2 [1]; 100 nM) | cell viability (Caco-2 [1]; 1000 nM) | cell viability (Caco-2 [1]; 10000 nM) | cell viability (Calu-3 [2]; 1 nM) | cell viability (Calu-3 [2]; 10 nM) | cell viability (Calu-3 [2]; 100 nM) | cell viability (Calu-3 [2]; 1000 nM) | cell viability (Calu-3 [2]; 10000 nM) | cell viability (HepG2 [3]; 1 nM) | cell viability (HepG2 [3]; 10 nM) | cell viability (HepG2 [3]; 100 nM) | cell viability (HepG2 [3]; 1000 nM) | cell viability (HepG2 [3]; 10000 nM) | cell viability (U2OS [4]; 1 nM) | cell viability (U2OS [4]; 10 nM) | cell viability (U2OS [4]; 100 nM) | cell viability (U2OS [4]; 1000 nM) | cell viability (U2OS [4]; 10000 nM) | cell viability (Vero E6 [5]; 1 nM) | cell viability (Vero E6 [5]; 10 nM) | cell viability (Vero E6 [5]; 100 nM) | cell viability (Vero E6 [5]; 1000 nM) | cell viability (Vero E6 [5]; 10000 nM) | relative viability EC50 (Caco-2 [6]) | relative viability EC50 (Calu-3 [7]) | relative viability EC50 (HepG2 [8]) | relative viability EC50 (U2OS [9]) | relative viability EC50 (Vero E6 [10]) | drug sensitivity score (Caco-2 [11]) | drug sensitivity score (Calu-3 [12]) | drug sensitivity score (HepG2 [13]) | drug sensitivity score (U2OS [14]) | drug sensitivity score (Vero E6 [15])
1 | Nc1ncnc2c1nc(Br)n2[C@@H]1O[C@@H]2COP(=O)(O)O[C@H]2[C@H]1O [8-bromo-cAMP] | 106% | 95.8% | 97.8% | 98.5% | 81.5% | 92.8% | 104% | 95.9% | 103% | 95.8% | 95.2% | 96.5% | 93.1% | 98.2% | 85.7% | 102% | 96.8% | 105% | 99% | 102% | 100% | 102% | 103% | 102% | 96% | > 10 µM | > 10 µM | > 10 µM | > 10 µM | > 10 µM | 0.7 | 0 | 0 | 0 | 0
2 | CC(=O)N(c1onc(C)c1C)S(=O)(=O)c1ccc(N)cc1 [sulfisoxazole-acetyl] | 109% | 106% | 110% | 102% | 90.9% | 96.7% | 102% | 93.6% | 102% | 102% | 96.9% | 105% | 114% | 103% | 97.4% | 101% | 97.5% | 101% | 97.7% | 98.7% | 104% | 107% | 103% | 96.9% | 98.8% | > 10 µM | > 10 µM | > 10 µM | > 10 µM | > 10 µM | 0 | 0 | 0 | 0 | 0
3 | CCN(c1cc(-c2ccc(CN3CCOCC3)cc2)cc(C(=O)NCc2c(C)cc(C)[nH]c2=O)c1C)C1CCOCC1 [tazemetostat] | 91.9% | 101% | 98.9% | 101% | 92.6% | 91.2% | 103% | 98.3% | 98% | 104% | 86.1% | 97% | 90.3% | 96.9% | 95.3% | 97.7% | 96.9% | 101% | 102% | 93.8% | 96.2% | 97.7% | 95.2% | 98.9% | 98.9% | > 10 µM | > 10 µM | > 10 µM | > 10 µM | > 10 µM | 0 | 0 | 0 | 0 | 0
4 | CCn1cc(C(=O)O)c(=O)c2cc(F)c(N3CCN(C)CC3)cc21 [pefloxacin] | 94.5% | 80.2% | 104% | 89.5% | 94.1% | 100% | 97.8% | 97.2% | 83.3% | 99% | 88.6% | 100% | 106% | 99.3% | 94.6% | 104% | 94.8% | 98.4% | 96% | 96% | 96.8% | 101% | 94.2% | 95.3% | 90.4% | > 10 µM | > 10 µM | > 10 µM | > 10 µM | > 10 µM | 0 | 0 | 0 | 0 | 0
5 | O=c1c(O)c(-c2cc(O)c(O)c(O)c2)oc2cc(O)cc(O)c12 [myricetin] | 97.2% | 99.2% | 98.8% | 101% | 96% | 105% | 98.5% | 96% | 102% | 105% | 96.9% | 91.9% | 106% | 94.4% | 96.3% | 93.6% | 105% | 97.4% | 99.6% | 103% | 94.1% | 97.7% | 95.4% | 95.8% | 97.5% | > 10 µM | > 10 µM | > 10 µM | > 10 µM | > 10 µM | 0 | 0 | 0 | 0 | 0
6 | CN(C)CCc1c[nH]c2ccc(Cn3cncn3)cc12 [rizatriptan] | 91.9% | 102% | 101% | 97.2% | 87.7% | 96.5% | 107% | 99.8% | 97.3% | 99.1% | 99% | 93.5% | 102% | 92.8% | 104% | 99% | 106% | 96.5% | 98.6% | 96.5% | 101% | 94.8% | 98.7% | 99.3% | 98.8% | > 10 µM | > 10 µM | > 10 µM | > 10 µM | > 10 µM | 0.2 | 0 | 0 | 0 | 0
7 | CC1(C)[C@@H]2C[C@@H](O)[C@@](C)(O)[C@H]1C2 [2,3-cis/exo-pinanediol] | 103% | 101% | 97.2% | 108% | 87.2% | 106% | 98.1% | 102% | 106% | 103% | 100% | 110% | 104% | 93.9% | 108% | 96.1% | 97.3% | 95.7% | 100% | 97.3% | 100% | 99.9% | 99.3% | 93.1% | 100% | > 10 µM | > 10 µM | > 10 µM | > 10 µM | > 10 µM | 0 | 0 | 0 | 0 | 0
8 | O=C(NC1CCOCC1)c1ccc(-c2cc(-c3c[nH]nc3-c3ccccn3)ccn2)cc1 | 91% | 97.2% | 100% | 95.7% | 93.9% | 101% | 120% | 103% | 99.6% | 108% | 96.2% | 99.9% | 94.8% | 104% | 93.8% | 98.2% | 98.4% | 100% | 94.4% | 92.2% | 93.4% | 103% | 98.8% | 107% | 102% | > 10 µM | > 10 µM | > 10 µM | > 10 µM | > 10 µM | 0 | 0 | 0 | 0 | 0
9 | CCCCNC(=O)[C@@H]1Cc2ccccc2N1C(=O)[C@@H](N)CC [butabindide] | 89.3% | 99.2% | 86.1% | 103% | 108% | 95.2% | 99.7% | 97.1% | 97.1% | 128% | 106% | 97.2% | 109% | 108% | 106% | 95.9% | 98.9% | 95.7% | 106% | 106% | 98.7% | 88.4% | 98.9% | 91.7% | 101% | > 10 µM | > 10 µM | > 10 µM | > 10 µM | > 10 µM | 0 | 0 | 0 | 0 | 0
10 | CC(C)OC(=O)c1cc2c(OC[C@@H](O)CNC(C)(C)C)cccc2[nH]1 | 92.3% | 93% | 105% | 89.5% | 103% | 114% | 102% | 91.6% | 108% | 91.3% | 98.2% | 103% | 102% | 95.7% | 90.4% | 96.1% | 99.3% | 96.1% | 98.3% | 91.9% | 101% | 102% | 99.6% | 93.4% | 94.2% | > 10 µM | > 10 µM | > 10 µM | > 10 µM | > 10 µM | 0 | 0 | 0 | 0 | 0
11 | Nc1[nH]cnc2ncnc1-2 [adenine] | 91.8% | 95.9% | 104% | 88.5% | 114% | 91.3% | 93.3% | 112% | 108% | 90.7% | 77.5% | 98.7% | 92.8% | 92.5% | 93.2% | 93.8% | 103% | 98.4% | 99.5% | 110% | 104% | 103% | 101% | 91.7% | 98.2% | > 10 µM | > 10 µM | > 10 µM | > 10 µM | > 10 µM | 0 | 0 | 0 | 0 | 0
12 | Cc1cc(N2CCOCC2)cc2[nH]c(-c3c(NC[C@@H](O)c4cccc(Cl)c4)cc[nH]c3=O)nc12 | 102% | 93.9% | 99.4% | 76.8% | 43% | 89.8% | 102% | 96.7% | 81.9% | 38.3% | 101% | 101% | 80.2% | 58.8% | 31.2% | 97.2% | 97.2% | 95.9% | 78% | 22.5% | 89.3% | 101% | 90.6% | 90.2% | 49.9% | 1.16 µM | 1.44 µM | 0.45 µM | 1.45 µM | 1.75 µM | 6.2 | 6 | 10.1 | 7.6 | 4.3
13 | O=C(COc1ccc(Cl)cc1)N1CCN(Cc2ccc3c(c2)OCO3)CC1 [fipexide] | 98.8% | 90.1% | 93.5% | 93.4% | 88.4% | 101% | 93.1% | 103% | 93.5% | 110% | 83.9% | 90.8% | 86.6% | 93.8% | 102% | 102% | 100% | 101% | 95.2% | 96.2% | 97.6% | 99.9% | 101% | 101% | 97.6% | > 10 µM | > 10 µM | > 10 µM | > 10 µM | > 10 µM | 0 | 0 | 0 | 0 | 0
